# From patent US20150018296A1, “THERAPEUTIC METHODS AND COMPOSITIONS UTILIZING CYCLOHEXENONE COMPOUNDS” (Golden Biotechnology Corporation, priority 2013, published 2015)
# What was measured:
# H838 = test: CCK-8 cell viability assay; assay type: cell-based, human; details: 48 h treatment, mean ± S.E.M., wild-type Ras
# Method: (§1) Human hepatoma (HepG2, Hep3B), human lung adenocarcinoma (A549, H838), and human myelogenous leukemia (K562) cell lines were obtained from American Type Culture Collection (Rockville, Md., USA). Human prostate cancer cell lines (LNCaP and DU145), human breast carcinoma (MCF-7), human bladder carcinoma (TSGH 8301) and human pancreas adenocarcinoma (BxPC-3) were obtained from BCRC (Bioresource Collection and Research Center, Hsinchu, Taiwan). HepG2, DU145 and MCF-7 cell lines were cultured in Minimum Essential Medium Alpha (Invitrogen/Gibco BRL, Grand Island, N.Y., USA). A549 cells were cultured in Dulbecco's modified Eagle's medium (Invitrogen/Gibco BRL). H838, TSGH 8301, BxPC-3 LNCaP and K562 cell lines were cultured in RPMI-1640 medium (Invitrogen/Gibco BRL). All cells were cultured at 37° C. in 5% CO2 in culture media supplemented with 10% fetal bovine serum (FBS) (Invitrogen/Gibco BRL) and 100 U/ml streptomycin and penicillin (Invitrogen/Gibco BRL). For treatment, cells were seeded in six-well plates at 6.25×10^5 cells/well. On the following day, the media was changed to serum-free media, and cells were serum-starved for 24 h. Compound 1 was dissolved in DMSO and diluted to the required concentration in serum-free medium. Cultures were then treated with diluted Compound 1 as indicated. After treatment, cells were washed with cold phosphate-buffered saline (PBS) and lysed using RIPA buffer containing phosphatase and protease inhibitors.
# (§2) Cell Counting Kit-8 (CCK-8) allows sensitive colorimetric assays for the determination of cell viability in cell proliferation and cytotoxicity assays. The detection sensitivity of CCK-8 is higher than the other tetrazolium salts such as MTT, XTT, MTS or WST-1.
# (§3) Cell viability was measured using Cell Counting Kit-8 (CCK-8, Enzo Life Sciences, Farmingdale, N.Y.). In this assay, WST-8 is reduced by dehydrogenases in cells to produce a yellow-colored product (formazan), which is soluble in culture medium. The amount of formazan generated is directly proportional to the number of living cells. After treatment, CCK-8 solution was added to each well and incubated for 4 h. The concentration of formazan was measured with a spectrophotometer at an absorbance wavelength of 450 nm. Cell viability was expressed as a percentage of the corresponding control.
# (§4) To determine whether the cytotoxic effects of Compound 1 correlate with the presence of Ras mutations, cell lines derived from human lung cancer (A549 and H838), liver cancer (HepG2 and Hep3B), and leukemia (K562 and THP-1) with wild-type Ras (H838, Hep3B, and K562) or mutant Ras (A549, HepG2, and THP-1) were used. Cell viability was measured after 48 h of Compound 1 treatment.
# A549 = test: CCK-8 cell viability assay; assay type: cell-based; details: Homo sapiens, 48 h treatment, mean ± S.E.M., mutant Ras
# Method: as §1, §2, §3, §4
# Hep3B = test: CCK-8 cell viability assay; assay type: cell-based; details: Homo sapiens, 48 h treatment, mean ± S.E.M., wild-type Ras
# Method: as §1, §2, §3, §4
# HepG2 = test: CCK-8 cell viability assay; assay type: cell-based; details: Homo sapiens, 48 h treatment, mean ± S.E.M., mutant Ras
# Method: as §1, §2, §3, §4
# K562 = test: CCK-8 cell viability assay; assay type: cell-based; details: Homo sapiens, 48 h treatment, mean ± S.E.M., wild-type Ras
# Method: as §1, §2, §3, §4
# THP-1 = test: CCK-8 cell viability assay; assay type: cell-based; details: Homo sapiens, 48 h treatment, mean ± S.E.M., mutant Ras
# Method: as §2, §3, §4
# Ras processing = test: Immunoblot of unprocessed and processed Ras in cancer cell lines; assay type: cell-based, human; details: H838 cells, competition assay, 24 h
# Method: FIG. 2A-C show illustrative effective results of the exemplary Compound 1 inhibiting Ras processing in cancer cell lines. (2A) A549 and H838 cells were treated with different concentrations of Compound 1 and grown under serum (10% FBS) or serum-free (no FBS) conditions for 24 h. (2B) H838, (2C) HepG2 and K562 cells were treated with different concentrations of Compound 1 and grown under serum-free (no FBS) conditions for 24 h. Whole cell lysates were then immunoblotted with a Ras antibody. A duplicate membrane was probed with a GAPDH antibody. The relative expression level of unprocessed to processed Ras was quantified by densitometry. The experiments were conducted three times. […]
# FIG. 3A-C show illustrative effective results of Compound 1 inhibiting the prenylation activity of farnesyltransferase in vitro and competes with FPP within cells. […] The relative expression level of unprocessed to processed Ras was quantified by densitometry. […]
# Sixty micrograms of total protein lysates measured using a Bradford assay (Sigma-Aldrich, St. Louis, Mo., USA) were resolved on 12.5% SDS-polyacrylamide gels. […] Secondary antibodies were conjugated to horseradish peroxidase, which was detected using a 3,3′-diaminobenzidine substrate kit (Vector Laboratories, Burlingame, Calif.). The immunoreactive bands were quantified by densitometry using Image-Pro Plus software (Media Cybernetics, Silver Spring, Md.). […]
structure (smiles),measurement,setting,value
COC1=C(OC)C(OC(C)=O)C(C/C=C(\C)CC/C=C(\C)CC2CC(C)C(=O)O2)C(C)C1=O (centres unmarked) [Compound 28],IC50,"H838; Homo sapiens, NCI-H838, 48 h",> 100 µM
COC1=C(OC)C(O)C(C/C=C(\C)CCC(=O)O)C(C)C1=O (centres unmarked) [Compound 27],IC50,"H838; Homo sapiens, NCI-H838, 48 h",> 100 µM
COC1=C(OC)C(OC(C)=O)C(C/C=C(\C)CC/C=C(\C)CCC=C(C)C)C(C)C1=O (centres unmarked) [Compound 29],IC50,"H838; Homo sapiens, NCI-H838, 48 h",> 100 µM
"COC1=C(OC)C(O)C(C/C=C(\C)CC/C=C(\C)CCC=C(C)C)C(C)C1=O (centres unmarked) [Compound 1, 4-hydroxy-2,3-dimethoxy-6-methyl-5-(3,7,11-trimethyldodeca-2,6,10-trienyl)cyclohex-2-enone]",IC50,A549,3.24 µM
same,IC50,Hep3B,3.74 µM
same,IC50,HepG2,6.42 µM
same,IC50,K562,5.12 µM
same,IC50,H838,2.96 ± 0.05 µM
same,IC50,"H838; Homo sapiens, NCI-H838, 48 h",3.32 µM
same,IC50,THP-1,2.22 µM
"COC1=CC(O)C(C/C=C(\C)CC/C=C(\C)CCC=C(C)C)C(C)C1=O (centres unmarked) [Compound 26, 4-hydroxy-2-methoxy-6-methyl-5-((2E,6E)-3,7,11-trimethyldodeca-2,6,10-trienyl)cyclohex-2-enone]",IC50,"H838; Homo sapiens, NCI-H838, 48 h",11.3 ± 4.17 µM
COC1=C(OCc2ccccc2)C(=O)C(C)C(C/C=C(\C)CC/C=C(\C)CCC=C(C)C)C1O (centres unmarked) [Compound 30],IC50,A549,22.6 ± 2.24 µM
same,IC50,Hep3B,9.06 ± 3.03 µM
same,IC50,HepG2,27 ± 6.06 µM
same,IC50,"H838; Homo sapiens, NCI-H838, 48 h",25.6 ± 6.54 µM
COC1=C(OCc2ccccc2)C(O)C(C/C=C(\C)CC/C=C(\C)CCC=C(C)C)C(C)C1=O (centres unmarked) [Compound 31],IC50,A549,6.68 ± 0.75 µM
same,IC50,Hep3B,7.46 ± 7.06 µM
same,IC50,HepG2,8.98 ± 0.97 µM
same,IC50,"H838; Homo sapiens, NCI-H838, 48 h",3.41 ± 1.43 µM
"CC(C)=CCC/C(C)=C/CC/C(C)=C/COP(=O)(O)OP(=O)(O)O [FPP, farnesyl pyrophosphate]",concentration of FPP that neutralized the effect of Compound 1 on Ras processing,Ras processing,≥ 10 µM
